The values below are quoted from earlier work in patent US20020020828A1, “Non-toxic ethylene glycol-based antifreeze/heat transfer fluid concentrate and antifreeze/heat transfer fluid” (priority 2000, published 2002).

The subject of the series is humans. Particulars: ingestion.

`OCCO` [EG, 1,2-ethandiol]: the “toxic level in humans (reported as low as)” value is recorded as 1,570 mg/kg.
